According to paper PMC6943619, “Synthesis and Pharmacological Evaluation of Hybrids Targeting Opioid and Neurokinin Receptors” (Molecules, 2019):

Biological target: human NK1 (Homo sapiens, UniProt P25103)
Assay: Calcium mobilization functional assay, agonist mode, CHONK1 cells
Assay type: cell-based
Parameters: expressed in transfected cells; host or cells: CHO cells (gift of Prof. T. Costa, ISS, Rome)
Conditions: CHONK1 cells, up to 10 µM

Sequence of human NK1 (P25103 whole entry): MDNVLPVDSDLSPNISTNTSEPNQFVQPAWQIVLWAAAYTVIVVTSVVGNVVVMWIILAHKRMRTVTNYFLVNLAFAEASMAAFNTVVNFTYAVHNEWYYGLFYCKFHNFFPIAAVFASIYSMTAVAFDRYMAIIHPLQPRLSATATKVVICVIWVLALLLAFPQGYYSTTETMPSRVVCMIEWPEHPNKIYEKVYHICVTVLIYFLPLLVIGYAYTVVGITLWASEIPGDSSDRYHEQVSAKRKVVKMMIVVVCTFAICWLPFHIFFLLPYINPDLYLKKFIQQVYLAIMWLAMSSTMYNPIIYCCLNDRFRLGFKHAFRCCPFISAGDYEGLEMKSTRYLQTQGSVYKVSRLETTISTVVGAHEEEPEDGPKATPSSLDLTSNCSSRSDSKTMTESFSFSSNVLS

`C[C@@H](O[C@H]1OCCN(Cc2n[nH]c(=O)[nH]2)[C@H]1c1ccc(F)cc1)c1cc(C(F)(F)F)cc(C(F)(F)F)c1` [aprepitant, reference compound] was tested, and the “effect per se on intracellular calcium levels (tested as an agonist)” value was “did not modify”.
